Measurements as given in publication PMC7180638, “Synthesis of Pyrrolidine Monocyclic Analogues of Pochonicine and Its Stereoisomers: Pursuit of Simplified Structures and Potent β-N-Acetylhexosaminidase Inhibition” (Molecules, 2020).
Where a name gives a salt, the structure may show the parent alone. Read-outs that look alike come from different tables or passages of the source.

Experiments:
Assay type in all cases: biochemical
[1] = molecular target: T1, α-Glucosidase (Rice) (Oryza sativa subsp. japonica, UniProt Q653V7); assay: α-Glucosidase (rice) inhibition
T1 construct: purchased Sigma-Aldrich Chemical Co
Experimental: (§1) With rat intestinal maltase as an exception, other enzymes were purchased from Sigma-Aldrich Chemical Co. (St. Louis, MO, USA). Brush border membranes prepared from rat small intestine according to the method of Kessler et al. were assayed at pH 6.8 for rat intestinal maltase using maltose. The released D-glucose was determined colorimetrically using the Glucose CII-test Wako (Wako Pure Chemical Ind.; Osaka, Japan). Other glycosidase activities were determined using an appropriate p-nitrophenyl glycoside as substrate in a buffer solution at the optimal pH value of each enzyme. The reaction was stopped by adding 400 mM Na2CO3. The released p-nitrophenol was measured spectrometrically at 400 nm.

[2] = molecular target: Rat intestinal maltase; assay: Rat intestinal maltase inhibition; conditions: α-Glucosidase
Experimental: as §1

[3] = molecular target: β-Glucosidase (Almond); assay: β-Glucosidase (almond) inhibition
Experimental: as §1

[4] = molecular target: β-Glucosidase (Bovine liver); assay: β-Glucosidase (bovine liver) inhibition
Experimental: as §1

[5] = molecular target: T2, α-Galactosidase (Coffee beans) (Coffea arabica, UniProt Q42656); assay: α-Galactosidase (coffee beans) inhibition
T2 construct: purchased Sigma-Aldrich Chemical Co
Experimental: as §1

[6] = molecular target: T3, β-Galactosidase (Bovine liver) (Bos taurus, UniProt F1MNT6); assay: β-Galactosidase (bovine liver) inhibition
T3 sequence (F1MNT6 1-469): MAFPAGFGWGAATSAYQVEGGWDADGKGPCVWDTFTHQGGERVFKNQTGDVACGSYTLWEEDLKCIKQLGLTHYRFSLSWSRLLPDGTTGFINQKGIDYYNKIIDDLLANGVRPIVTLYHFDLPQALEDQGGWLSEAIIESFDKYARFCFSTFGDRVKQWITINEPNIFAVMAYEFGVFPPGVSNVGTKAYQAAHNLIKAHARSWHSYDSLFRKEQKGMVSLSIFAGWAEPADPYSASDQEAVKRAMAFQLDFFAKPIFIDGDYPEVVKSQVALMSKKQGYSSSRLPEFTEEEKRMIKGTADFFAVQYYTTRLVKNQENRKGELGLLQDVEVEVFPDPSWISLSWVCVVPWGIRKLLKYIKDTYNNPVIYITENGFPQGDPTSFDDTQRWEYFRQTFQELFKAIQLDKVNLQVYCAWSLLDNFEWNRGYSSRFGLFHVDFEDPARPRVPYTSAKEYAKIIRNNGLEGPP
Experimental: as §1

[7] = molecular target: β-Mannosidase (Snail); assay: β-Mannosidase (snail) inhibition
Experimental: as §1

[8] = molecular target: T4, Amyloglucosidase (A. niger) (Aspergillus niger, UniProt P69328); assay: Amyloglucosidase (A. niger) inhibition
T4 construct: purchased Sigma-Aldrich Chemical Co
Experimental: as §1

[9] = molecular target: T5, β-Glucuronidase (Bovine liver) (Bos taurus, UniProt A3KMY8); assay: β-Glucuronidase (bovine liver) inhibition
T5 construct: purchased Sigma-Aldrich Chemical Co; host or cells: bovine liver
T5 sequence (A3KMY8 1-652): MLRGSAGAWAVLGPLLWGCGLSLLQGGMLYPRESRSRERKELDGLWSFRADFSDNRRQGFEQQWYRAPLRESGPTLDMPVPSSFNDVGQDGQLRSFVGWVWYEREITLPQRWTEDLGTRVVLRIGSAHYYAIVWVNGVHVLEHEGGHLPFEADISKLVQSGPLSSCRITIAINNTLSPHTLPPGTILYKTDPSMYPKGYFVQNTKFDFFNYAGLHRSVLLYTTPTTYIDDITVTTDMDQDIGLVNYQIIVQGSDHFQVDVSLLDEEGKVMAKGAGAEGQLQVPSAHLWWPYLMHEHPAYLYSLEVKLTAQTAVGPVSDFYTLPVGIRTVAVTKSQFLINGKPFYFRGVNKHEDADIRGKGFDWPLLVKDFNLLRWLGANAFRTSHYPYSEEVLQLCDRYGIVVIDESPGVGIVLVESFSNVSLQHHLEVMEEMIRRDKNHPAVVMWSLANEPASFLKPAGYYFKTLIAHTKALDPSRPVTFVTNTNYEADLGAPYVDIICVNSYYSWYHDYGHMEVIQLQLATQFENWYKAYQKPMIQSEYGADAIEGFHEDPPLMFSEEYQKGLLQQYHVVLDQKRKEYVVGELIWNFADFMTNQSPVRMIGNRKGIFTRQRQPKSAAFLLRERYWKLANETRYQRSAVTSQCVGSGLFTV
Experimental: as §1

[10] = molecular target: β-N-Acetylhexosaminidase (Jack bean); assay: β-N-Acetylhexosaminidase (Jack bean) inhibition; conditions: β-N-Acetylhexosaminidase (β-GlcNAcase), read-out: IC50
Experimental: as §1

[11] = molecular target: T6, α-N-Acetylgalactosaminidase (Chicken liver) (Gallus gallus, UniProt Q90744); assay: α-N-Acetylgalactosaminidase (chicken liver) inhibition
T6 construct: purchased Sigma-Aldrich Chemical Co; host or cells: chicken liver
T6 sequence (Q90744 1-405): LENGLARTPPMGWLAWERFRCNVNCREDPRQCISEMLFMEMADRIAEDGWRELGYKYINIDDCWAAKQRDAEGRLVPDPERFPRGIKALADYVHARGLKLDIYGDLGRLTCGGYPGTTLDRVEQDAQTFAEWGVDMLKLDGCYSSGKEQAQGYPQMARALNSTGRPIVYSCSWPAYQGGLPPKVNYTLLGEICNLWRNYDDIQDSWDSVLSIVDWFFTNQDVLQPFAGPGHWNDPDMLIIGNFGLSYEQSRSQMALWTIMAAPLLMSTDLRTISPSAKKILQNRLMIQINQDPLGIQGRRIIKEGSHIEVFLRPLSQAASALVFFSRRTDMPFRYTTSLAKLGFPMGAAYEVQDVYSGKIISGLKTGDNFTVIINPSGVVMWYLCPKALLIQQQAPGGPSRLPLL
Experimental: as §1

[12] = molecular target: β-N-Acetylhexosaminidase (Bovine liver); assay: β-N-Acetylhexosaminidase (bovine liver) inhibition; conditions: for IC50: β-N-Acetylhexosaminidase (β-GlcNAcase)
Experimental: as §1

[13] = 1000 μM, read-out: Inhibition % at 1000 μM

T1 sequence (Q653V7 34-885): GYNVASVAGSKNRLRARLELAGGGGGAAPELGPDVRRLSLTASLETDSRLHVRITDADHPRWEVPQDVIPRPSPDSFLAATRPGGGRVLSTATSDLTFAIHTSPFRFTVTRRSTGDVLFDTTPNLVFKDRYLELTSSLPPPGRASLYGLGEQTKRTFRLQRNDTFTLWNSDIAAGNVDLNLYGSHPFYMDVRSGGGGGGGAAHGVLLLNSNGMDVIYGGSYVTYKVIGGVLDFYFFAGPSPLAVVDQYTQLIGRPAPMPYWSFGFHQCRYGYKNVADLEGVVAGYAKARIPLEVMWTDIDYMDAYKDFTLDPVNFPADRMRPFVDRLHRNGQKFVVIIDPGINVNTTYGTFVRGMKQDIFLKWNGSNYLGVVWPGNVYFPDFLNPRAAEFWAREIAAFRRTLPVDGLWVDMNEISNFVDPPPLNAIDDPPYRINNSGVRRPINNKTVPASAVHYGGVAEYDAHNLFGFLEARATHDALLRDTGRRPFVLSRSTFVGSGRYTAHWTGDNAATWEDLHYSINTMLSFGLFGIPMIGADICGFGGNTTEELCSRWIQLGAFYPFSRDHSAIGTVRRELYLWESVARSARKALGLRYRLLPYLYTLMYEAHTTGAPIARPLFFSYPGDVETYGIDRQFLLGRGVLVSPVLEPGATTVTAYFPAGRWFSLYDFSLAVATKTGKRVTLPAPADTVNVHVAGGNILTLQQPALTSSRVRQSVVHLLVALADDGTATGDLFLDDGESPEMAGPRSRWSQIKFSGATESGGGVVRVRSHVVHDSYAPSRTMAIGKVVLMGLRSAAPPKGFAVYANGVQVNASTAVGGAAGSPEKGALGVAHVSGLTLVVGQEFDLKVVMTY
T2 sequence (Q42656 16-378): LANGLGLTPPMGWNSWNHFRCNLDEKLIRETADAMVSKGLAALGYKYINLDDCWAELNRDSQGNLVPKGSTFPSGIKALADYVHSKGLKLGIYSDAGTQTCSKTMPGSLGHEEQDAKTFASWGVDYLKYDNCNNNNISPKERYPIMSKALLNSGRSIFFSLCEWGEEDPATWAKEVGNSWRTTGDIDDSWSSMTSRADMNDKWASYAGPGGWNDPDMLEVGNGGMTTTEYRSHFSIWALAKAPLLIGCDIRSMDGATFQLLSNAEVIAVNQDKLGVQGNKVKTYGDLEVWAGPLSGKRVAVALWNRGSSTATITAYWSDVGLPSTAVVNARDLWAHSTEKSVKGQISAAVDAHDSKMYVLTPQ
T4 sequence (P69328 25-640): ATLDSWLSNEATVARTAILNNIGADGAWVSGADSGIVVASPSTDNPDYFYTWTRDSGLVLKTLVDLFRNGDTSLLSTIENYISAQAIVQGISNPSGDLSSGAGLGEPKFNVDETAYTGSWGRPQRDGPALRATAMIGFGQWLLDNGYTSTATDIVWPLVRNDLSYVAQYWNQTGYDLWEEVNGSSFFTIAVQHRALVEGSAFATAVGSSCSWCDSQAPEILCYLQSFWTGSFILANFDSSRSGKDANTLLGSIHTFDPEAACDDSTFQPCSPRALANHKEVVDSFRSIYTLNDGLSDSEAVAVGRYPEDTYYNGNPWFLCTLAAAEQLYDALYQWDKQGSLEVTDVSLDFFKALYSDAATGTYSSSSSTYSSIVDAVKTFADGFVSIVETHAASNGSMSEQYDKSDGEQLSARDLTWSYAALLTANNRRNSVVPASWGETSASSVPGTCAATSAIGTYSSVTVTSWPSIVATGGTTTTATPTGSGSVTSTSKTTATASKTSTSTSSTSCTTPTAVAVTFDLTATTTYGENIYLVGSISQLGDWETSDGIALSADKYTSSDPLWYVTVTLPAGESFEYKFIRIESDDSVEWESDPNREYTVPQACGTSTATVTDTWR

Structure (SMILES): CC(=O)NC[C@H]1N[C@H](CO)[C@H](O)[C@@H]1O [D-10, 1-N-acetylamino-2,5-imino-1,2,5-trideoxy-D-altritol hydrochloride]
- inhibition at 1000 µM [1, 13]: 26.1%
- inhibition at 1000 µM ([1]; read-out: IC50): < 50%
- IC50 [2]: NI (9.24%) (No Inhibition (less than 50% at 1000 μM))
- IC50 [3]: NI (No Inhibition (less than 50% at 1000 μM))
- Inhibition % at 1000 μM [3]: 41.0%
- IC50 [4]: NI (2.4%) (No Inhibition (less than 50% at 1000 μM))
- IC50 [5]: 380 µM
- inhibition at 1000 µM [6, 13]: 3.3%
- inhibition at 1000 µM ([6]; read-out: IC50): < 50%
- IC50 [7]: NI (No Inhibition (less than 50% at 1000 μM))
- Inhibition % at 1000 μM [7]: 0%
- inhibition at 1000 µM [8, 13]: 3.8%
- inhibition at 1000 µM ([8]; read-out: IC50): < 50%
- inhibition at 1000 µM [9, 13]: 1.3%
- inhibition at 1000 µM ([9]; read-out: IC50): < 50%
- IC50 [10]: 0.12 µM
- IC50 [11]: 65.3 µM

Structure (SMILES): CC(=O)NC[C@H]1N[C@@H](CO)[C@@H](O)[C@@H]1O [E-10a, 1-N-acetylamino-2,5-imino-1,2,5-trideoxy-D-glucitol hydrochloride]
- inhibition at 1000 µM [1, 13]: 15.9%
- inhibition at 1000 µM ([1]; read-out: IC50): < 50%
- IC50 [2]: NI (No Inhibition (less than 50% at 1000 μM))
- Inhibition % at 1000 μM [2]: 12.7%
- IC50 [3]: NI (No Inhibition (less than 50% at 1000 μM))
- Inhibition % at 1000 μM [3]: 37.9%
- IC50 [4]: NI (No Inhibition (less than 50% at 1000 μM))
- Inhibition % at 1000 μM [4]: 4.1%
- inhibition at 1000 µM [5, 13]: 0.36%
- inhibition at 1000 µM ([5]; read-out: IC50): < 50%
- inhibition at 1000 µM [6, 13]: 4.9%
- inhibition at 1000 µM ([6]; read-out: IC50): < 50%
- IC50 [7]: NI (No Inhibition (less than 50% at 1000 μM))
- Inhibition % at 1000 μM [7]: 25.8%
- inhibition at 1000 µM [8, 13]: 4%
- inhibition at 1000 µM ([8]; read-out: IC50): < 50%
- inhibition at 1000 µM [9, 13]: 0%
- inhibition at 1000 µM ([9]; read-out: IC50): < 50%
- IC50 ([12]; read-out: IC50): 95 µM
- IC50 [10]: 10 µM
- inhibition at 1000 µM [11, 13]: 1.4%
- inhibition at 1000 µM ([11]; read-out: IC50): < 50%

Structure (SMILES): CC(=O)NC[C@@H]1N[C@@H](CO)[C@@H](O)[C@@H]1O [E-10b, 1-N-acetylamino-2,5-imino-1,2,5-trideoxy-L-iditol hydrochloride]
- inhibition at 1000 µM [1, 13]: 0%
- inhibition at 1000 µM ([1]; read-out: IC50): < 50%
- IC50 [2]: NI (No Inhibition (less than 50% at 1000 μM))
- Inhibition % at 1000 μM [2]: 0%
- IC50 [3]: NI (No Inhibition (less than 50% at 1000 μM))
- Inhibition % at 1000 μM [3]: 1.2%
- IC50 [4]: NI (No Inhibition (less than 50% at 1000 μM))
- Inhibition % at 1000 μM [4]: 0%
- inhibition at 1000 µM [5, 13]: 0%
- inhibition at 1000 µM ([5]; read-out: IC50): < 50%
- inhibition at 1000 µM [6, 13]: 3.9%
- inhibition at 1000 µM ([6]; read-out: IC50): < 50%
- IC50 [7]: NI (No Inhibition (less than 50% at 1000 μM))
- Inhibition % at 1000 μM [7]: 0%
- inhibition at 1000 µM [8, 13]: 6.4%
- inhibition at 1000 µM ([8]; read-out: IC50): < 50%
- inhibition at 1000 µM [9, 13]: 4.3%
- inhibition at 1000 µM ([9]; read-out: IC50): < 50%
- IC50 [12]: NI (No Inhibition (less than 50% at 1000 μM))
- Inhibition % at 1000 μM ([12]; β-N-Acetylhexosaminidase, 1000 μM): 38.4%
- IC50 [10]: 115 µM
- inhibition at 1000 µM [11, 13]: 0.5%
- inhibition at 1000 µM ([11]; read-out: IC50): < 50%
